The source made the active and inactive calls. No cut-off for these calls is given here.
What was measured:
Mus musculus [1] = test: Neurotoxicity in ip dosed Swiss albino mouse assessed as minimal motor impairment at 300 mg/kg, ip after 4 hrs by rotarod test; assay type: toxicity, organism-based; parameters: dose 300 mg/kg, route intraperitoneal; conditions: in vivo
Mus musculus [2] = test: Neurotoxicity in Swiss albino mouse assessed as minimal motor impairment at 300 mg/kg, ip after 0.5 hrs by rotarod test; assay type: toxicity, organism-based; parameters: dose 300 mg/kg, route intraperitoneal; conditions: in vivo
Mus musculus [3] = test: Antiepileptic activity in ip dosed Swiss albino mouse assessed as protection against subcutaneous pentylenetetrazol-induced clonic seizures at 300 mg/kg, ip after 0.5 hrs; assay type: functional, organism-based; parameters: dose 300 mg/kg
Mus musculus [4] = test: Antiepileptic activity in Swiss albino mouse assessed as protection against maximum electric shock-induced seizure at 300 mg/kg, ip after 4 hrs; assay type: functional, organism-based; parameters: dose 300 mg/kg
Mus musculus [5] = test: Antiepileptic activity in ip dosed Swiss albino mouse assessed as dose required to protect against subcutaneous pentylenetetrazol-induced clonic seizures after 4 hrs; assay type: functional; conditions: read-out: MED
Mus musculus [6] = test: Antiepileptic activity in ip dosed Swiss albino mouse assessed as dose required to protect against maximum electric shock-induced seizure after 0.5 hrs; assay type: functional; conditions: read-out: MED
Mus musculus [7] = test: Antiepileptic activity in Swiss albino mouse assessed as protection against maximum electric shock-induced seizure at 300 mg/kg, ip after 0.5 hrs; assay type: functional, organism-based; parameters: dose 300 mg/kg
Mus musculus [8] = test: Antiepileptic activity in ip dosed Swiss albino mouse assessed as protection against subcutaneous pentylenetetrazol-induced clonic seizures at 300 mg/kg, ip after 4 hrs; assay type: functional, organism-based; parameters: dose 300 mg/kg
Mus musculus [9] = test: Neurotoxicity in ip dosed Swiss albino mouse assessed as dose required for minimal motor impairment after 4 hrs by rotarod test; assay type: toxicity, organism-based; conditions: in vivo
Mus musculus [10] = test: Antiepileptic activity in ip dosed Swiss albino mouse assessed as dose required to protect against subcutaneous pentylenetetrazol-induced clonic seizures after 0.5 hrs; assay type: functional; conditions: read-out: MED
Mus musculus [11] = test: Antiepileptic activity in ip dosed Swiss albino mouse assessed as dose required to protect against maximum electric shock-induced seizure after 4 hrs; assay type: functional; conditions: read-out: MED
Mus musculus [12] = test: Neurotoxicity in ip dosed Swiss albino mouse assessed as dose required for minimal motor impairment after 0.5 hrs by rotarod test; assay type: toxicity, organism-based; conditions: in vivo
Rattus norvegicus [13] = test: Antiepileptic activity in Wistar rat assessed as protection against maximum electric shock-induced seizure at 30 mg/kg, po after 2 hrs; assay type: functional
Rattus norvegicus [14] = test: Antiepileptic activity in Wistar rat assessed as protection against maximum electric shock-induced seizure at 30 mg/kg, po after 1 hr; assay type: functional
Rattus norvegicus [15] = test: Antiepileptic activity in Wistar rat assessed as protection against maximum electric shock-induced seizure at 30 mg/kg, po after 0.5 hrs; assay type: functional
Rattus norvegicus [16] = test: Antiepileptic activity in Wistar rat assessed as protection against maximum electric shock-induced seizure at 30 mg/kg, po after 0.25 hrs; assay type: functional
Rattus norvegicus [17] = test: Antiepileptic activity in Wistar rat assessed as protection against maximum electric shock-induced seizure at 30 mg/kg, po after 4 hrs; assay type: functional
Rattus norvegicus [18] = test: Neurotoxicity in Wistar rat assessed as minimal motor impairment at 30 mg/kg, po by rotarod method; assay type: toxicity, organism-based; parameters: dose 30 mg/kg, route oral; conditions: in vivo
Mus musculus [19] = test: Antiepileptic activity in ip dosed Swiss albino mouse assessed as protection against subcutaneous pentylenetetrazol-induced clonic seizures at 30 to 100 mg/kg, ip after 0.5 hrs; assay type: functional; conditions: sc, dose mg/kg 30-100, read-out: MED

Compound	Activity (Mus musculus [1])	Activity (Mus musculus [2])	Activity (Mus musculus [3])	Activity (Mus musculus [4])	minimal effective dose (Mus musculus [5]) [mg/kg]	minimal effective dose (Mus musculus [6]) [mg/kg]	Activity (Mus musculus [7])	Activity (Mus musculus [8])	MTC (Mus musculus [9]) [mg/kg]	minimal effective dose (Mus musculus [10]) [mg/kg]	minimal effective dose (Mus musculus [11]) [mg/kg]	MTC (Mus musculus [12]) [mg/kg]	Activity (Rattus norvegicus [13]) [%]	Activity (Rattus norvegicus [14]) [%]	Activity (Rattus norvegicus [15]) [%]	Activity (Rattus norvegicus [16]) [%]	Activity (Rattus norvegicus [17]) [%]	Activity (Rattus norvegicus [18])	minimal effective dose (Mus musculus [19]) [mg/kg]
O=C(/N=C/c1ccc([N+](=O)[O-])cc1)Nc1ccc2c(c1)C(=O)C(=O)N2CN1CCOCC1	Non-toxic	Non-toxic	inactive	inactive	300	100	–	–	–	–	–	–	–	–	–	–	–	–	–
O=C(/N=C/c1cccc([N+](=O)[O-])c1)Nc1ccc2c(c1)C(=O)C(=O)N2CN1CCCCC1	–	–	inactive	inactive	300	–	inactive	–	–	–	–	–	–	–	–	–	–	–	–
O=C(/N=C/c1ccc(Cl)cc1)Nc1ccc2c(c1)C(=O)C(=O)N2CN1CCCCC1	–	Non-toxic	–	–	–	100	–	inactive	300	300	300	–	–	–	–	–	–	–	–
O=C(/N=C/c1ccccc1Cl)Nc1ccc2c(c1)C(=O)C(=O)N2CN1CCCCC1	–	–	–	–	–	100	–	inactive	300	300	300	100	–	–	–	–	–	–	–
Cc1ccc(/C=N/C(=O)Nc2ccc3c(c2)C(=O)C(=O)N3CN2CCOCC2)cc1	Non-toxic	Non-toxic	inactive	inactive	300	300	–	–	–	–	–	–	–	–	–	–	–	–	–
COc1ccc(/C=N/C(=O)Nc2ccc3c(c2)C(=O)C(=O)N3CN2CCCCC2)cc1	–	–	–	–	–	–	inactive	inactive	–	300	300	–	–	–	–	–	–	–	–
O=C(/N=C/c1ccc(Cl)cc1)Nc1ccc2c(c1)C(=O)C(=O)N2CN1CCOCC1	Non-toxic	Non-toxic	–	–	300	30	–	–	–	300	100	–	100	50	50	25	100	Non-toxic	–
O=C(/N=C/c1ccccc1Cl)Nc1ccc2c(c1)C(=O)C(=O)N2CN1CCOCC1	Non-toxic	–	–	–	–	100	–	inactive	–	300	300	300	–	–	–	–	–	–	–
O=C(/N=C/c1ccc(Br)cc1)Nc1ccc2c(c1)C(=O)C(=O)N2CN1CCCCC1	–	–	inactive	–	300	30	–	–	300	–	300	100	100	50	50	25	100	Non-toxic	–
O=C(/N=C/c1ccccc1)Nc1ccc2c(c1)C(=O)C(=O)N2CN1CCOCC1	–	–	inactive	–	–	–	inactive	inactive	–	–	300	–	–	–	–	–	–	–	–
COc1ccc(/C=N/C(=O)Nc2ccc3c(c2)C(=O)C(=O)N3CN2CCOCC2)cc1	–	–	inactive	inactive	300	–	inactive	–	300	–	–	300	–	–	–	–	–	–	–
O=C(/N=C/c1cccc([N+](=O)[O-])c1)Nc1ccc2c(c1)C(=O)C(=O)N2CN1CCOCC1	–	–	inactive	–	–	–	inactive	inactive	–	–	300	–	–	–	–	–	–	–	–
O=C(/N=C/c1ccccc1)Nc1ccc2c(c1)C(=O)C(=O)N2CN1CCCCC1	–	–	–	inactive	–	–	inactive	inactive	–	300	–	–	–	–	–	–	–	–	–
O=C1NC(=O)C(c2ccccc2)(c2ccccc2)N1 [PHENYTOIN]	–	–	inactive	–	–	30	–	inactive	100	–	30	100	75	75	100	25	75	Non-toxic	–
CCC1(C)CC(=O)NC1=O (stereo unspecified) [ETHOSUXIMIDE]	Non-toxic	Non-toxic	–	inactive	300	–	inactive	–	–	100	–	–	–	–	–	–	–	–	–
O=C(/N=C/c1ccc(F)cc1)Nc1ccc2c(c1)C(=O)C(=O)N2CN1CCOCC1	Non-toxic	–	–	–	300	30	–	–	–	100	100	300	100	50	50	25	100	Non-toxic	–
O=C(/N=C/c1ccc(O)cc1)Nc1ccc2c(c1)C(=O)C(=O)N2CN1CCOCC1	–	Non-toxic	–	inactive	300	300	–	–	300	–	–	–	0	0	0	0	50	Non-toxic	30
Cc1ccc(/C=N/C(=O)Nc2ccc3c(c2)C(=O)C(=O)N3CN2CCCCC2)cc1	–	–	–	inactive	–	–	inactive	inactive	–	300	–	–	–	–	–	–	–	–	–
O=C(/N=C/c1ccc(O)cc1)Nc1ccc2c(c1)C(=O)C(=O)N2CN1CCCCC1	Non-toxic	Non-toxic	inactive	inactive	300	300	–	–	–	–	–	–	–	–	–	–	–	–	–
O=C(/N=C/c1ccc(F)cc1)Nc1ccc2c(c1)C(=O)C(=O)N2CN1CCCCC1	–	–	–	–	–	100	–	inactive	300	100	300	300	–	–	–	–	–	–	–
O=C(/N=C/c1ccc([N+](=O)[O-])cc1)Nc1ccc2c(c1)C(=O)C(=O)N2CN1CCCCC1	–	–	–	–	300	30	–	–	300	300	100	300	0	25	50	0	0	Non-toxic	–
O=C(/N=C/c1ccc(Br)cc1)Nc1ccc2c(c1)C(=O)C(=O)N2CN1CCOCC1	Non-toxic	Non-toxic	–	–	–	100	–	inactive	–	300	300	–	–	–	–	–	–	–	–
